Experimental data as given in US9682940B2, “Indazole derivatives useful as CB-1 inverse agonists” (Janssen Pharmaceutica NV, priority 2015, dated 2017).
pEC50: −log10 of the molar value.

Key:
[1] = biological target: Human CB1R (Cannabanoid receptor 1) (Homo sapiens (Human), UniProt P21554); assay: CB-1 in vitro cAMP (HTRF) assay in HEK-293 cells; type: cell-based; conditions: HEK-293 cells stably transfected with human CB1R, 250 nM Forskolin, mean where tested more than once, read-out: CB-1 (HEK_cAMP) EC50
Human CB1R (Cannabanoid receptor 1), sequence (P21554 whole entry): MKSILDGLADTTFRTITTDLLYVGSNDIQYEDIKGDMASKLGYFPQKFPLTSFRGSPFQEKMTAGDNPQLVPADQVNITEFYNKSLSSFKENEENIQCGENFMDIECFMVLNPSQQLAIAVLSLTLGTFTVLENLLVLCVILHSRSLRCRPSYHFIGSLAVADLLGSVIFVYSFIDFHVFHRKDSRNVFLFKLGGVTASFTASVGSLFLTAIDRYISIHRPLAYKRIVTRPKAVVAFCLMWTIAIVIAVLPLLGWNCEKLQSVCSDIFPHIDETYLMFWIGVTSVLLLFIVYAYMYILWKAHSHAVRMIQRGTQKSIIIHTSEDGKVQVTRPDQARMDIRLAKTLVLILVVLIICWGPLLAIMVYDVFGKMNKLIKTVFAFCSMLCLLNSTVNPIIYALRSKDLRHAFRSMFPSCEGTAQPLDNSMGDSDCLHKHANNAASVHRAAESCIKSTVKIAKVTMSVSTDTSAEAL
Description: (§1) CB1 and CB2 receptors are Gi-coupled GPCR. Activation of CB1 and CB2 receptors results in a decrease in cAMP production. An inverse agonist of the CB1 or CB2 receptor results in the opposite effect, an increase of cAMP production. The principle of this assay is based on HTRF® technology (Homogeneous Time-Resolved Fluorescence). The method is a competitive immunoassay between native cAMP produced by cells and the cAMP labeled with the fluorophore d2. The tracer binding is quantified by a Mab anti-cAMP labeled with Eu3+TBP-NHS Cryptate (supplied as part of the assay kit). The specific signal (i.e. energy transfer) is inversely proportional to the concentration of cAMP in the standard or sample.
(§2) Human CB1R (Cannabanoid receptor 1) was stably transfected in HEK-293 cells (DiscoveRx, cat: 93-0200C1). Human CB2R (Cannabanoid receptor 2) was stably transfected in HEK-293 cells (DiscoveRx, cat: 93-0201C1). Cell cultures were maintained in media: DMEM (Invitrogen Cat#12430-054) supplemented with 10% HI FBS (Invitrogen Cat#16140-071), 1% L-glutamine (Invitrogen Cat#25030-081), 0.2 mg/ml Hygromycin B (Invitrogen Cat#10687-010), 600 μg/mL G418 (Invitrogen Cat#10131-035), and 1× Penn/Strep (Invitrogen 15140-122). After cell expansion, aliquots were cryo-stored in media containing 5% DMSO (Pierce Cat#20684).
(§3) One day prior to experiments media was warmed to 37° C. and the cryo-stored cells were thawed in a 37° C. water bath. The cells were then added to media (10× volume) and the mixture was centrifugated at 1000 RPM for 5 min. The supernate was removed and the cells were re-suspended in media. A sample of the cell suspension was evaluated on a Cedex XS automated cell counter (Innovatis Systems) to determine viable cells/ml. Additional media was added to the cells to achieve a final cell density of 4E5 cells/mL. The cells were then plated into 384 well PDL white solid bottom plates (Greiner, Cat#781945) at 20 μL per well using a Multidrop (Thermo Scientific). Cells were removed from Row P (location of cAMP standards). Two columns of cells were plated into a clear bottom 384 well PDL coated plate (Greiner, Cat#781944) to view confluence the day of the assay. The cell plates were lidded and stored for 15 minutes in a hood, then transferred to an incubator (37° C., 5% CO2, 95% humidity) overnight.
(§4) DMSO was added to all wells of 384 well V bottom polystyrene plate (Greiner, Cat#781280) except to columns 1 and 13, rows O and P and wells M13-M23 and N13-N23. Test compounds (60 μL, 10 mM) were added to Column 1 and 13 (A1 through N1 and A13 through L13). Test compounds were serially diluted 1/3 by transferring and mixing 20 μl sample with 40 μL DMSO.
(§5) DMSO (40 μL) was added to wells of 384 well V bottom polystyrene plate: O2 through O11, M14 through M23, N14 through N23, and O14 through 023. AM630 (also known as [6-iodo-2-methyl-1-[2-(4-morpholinyl)ethyl]-1H-indol-3-yl](4-methoxyphenyl)-methanone, Cayman Chemical, Cat#10006974) (60 μL, 10 mM) was added to 01; and 1-(2,4-dichlorophenyl)-7-[(4-fluorophenyl)methylene]-4,5,6,7-tetrahydro-N-1-piperidinyl-1H-indazole-3-carboxamide (60 μL, 10 mM) was added to N13. The control was serially diluted 1/3 by transferring and mixing 20 μl sample with 40 μL DMSO. This process resulted 11 doses per control, 10 mM to […].
(§6) Cells plated the day prior to the assay in clear bottom plates were viewed on an inverse microscope to ensure confluency in the range of 60-75%. […]

[2] = biological target: Human CB2R (Cannabanoid receptor 2) (Homo sapiens (Human), UniProt P34972); assay: CB-2 in vitro cAMP (HTRF) assay in HEK-293 cells; type: cell-based; conditions: HEK-293 cells stably transfected with human CB2R, 250 nM Forskolin, mean where tested more than once, read-out: CB-2 (HEK_cAMP) EC50
Human CB2R (Cannabanoid receptor 2), sequence (P34972 whole entry): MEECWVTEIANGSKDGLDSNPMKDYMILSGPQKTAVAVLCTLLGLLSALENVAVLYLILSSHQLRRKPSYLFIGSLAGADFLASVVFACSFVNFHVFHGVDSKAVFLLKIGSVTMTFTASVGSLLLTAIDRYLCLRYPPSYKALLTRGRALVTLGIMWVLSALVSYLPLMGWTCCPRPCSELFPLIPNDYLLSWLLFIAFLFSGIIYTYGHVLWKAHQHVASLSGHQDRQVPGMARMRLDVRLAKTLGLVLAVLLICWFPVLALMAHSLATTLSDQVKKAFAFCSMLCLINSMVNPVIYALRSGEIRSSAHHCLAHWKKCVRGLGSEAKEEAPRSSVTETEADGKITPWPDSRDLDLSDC
Description: as §1, §2, §3, §4, §5, §6

SMILES | pEC50 [1] | pEC50 [2]
O=C(O)c1cccc(S(=O)(=O)N2CCC(c3n[nH]c4ccc(C(c5ccc(Cl)cc5)c5ccc(Cl)cc5)cc34)C2)c1 (stereo not drawn) [Compound 273] | 5.17 | < 5.00
O=C(O)CCC(=O)N1CCC(c2nn(C3CC3)c3ccc(C(c4ccc(Cl)cc4)c4ccc(Cl)cc4)cc23)CC1 [Compound 107] | 6.04 | < 5.00
NC(=O)COc1cccc(N2CCC(c3c4cc(C(c5ccc(Cl)cc5)c5ccc(Cl)cc5)ccc4nn3C3CC3)CC2)c1 [Compound 195, 2-(3-(4-(5-(bis(4-chlorophenyl)methyl)-2-cyclopropyl-2H-indazol-3-yl)piperidin-1-yl)phenoxy)acetamide] | 7.49 | 5.16
O=C(O)c1cccc(C(=O)N2CCC(c3nn(C4CC4)c4ccc(C(c5ccc(Cl)cc5)c5ccc(Cl)cc5)cc34)CC2)c1 [Compound 97] | 6.32 | < 5.00
NC(=O)c1ccc(S(=O)(=O)N2CCC(c3c4cc(C(c5ccc(Cl)cc5)c5ccc(Cl)cc5)ccc4nn3C3CC3)CC2)cc1 [Compound 118, 4-(4-(5-(bis(4-chlorophenyl)methyl)-2-cyclopropyl-2H-indazol-3-yl)piperidin-1-ylsulfonyl)benzamide] | 8.40 | < 5.00
NC(=O)c1ccc(C(c2ccc(Cl)cc2)c2ccc3[nH]nc(C4CCN(S(=O)(=O)C(F)(F)F)CC4)c3c2)cn1 (stereo not drawn) [Compound 253] | 7.96 | 5.16
CC(C)(O)Cn1nc(C2CCN(S(=O)(=O)C(F)(F)F)CC2)c2cc(C(c3ccc(Cl)cc3)c3ccc(Cl)cc3)ccc21 [Compound 201] | 5.58 | < 5.00
O=C(O)COc1cccc(N2CCC(c3n[nH]c4ccc(C(c5ccc(Cl)cc5)c5ccc(Cl)cc5)cc34)CC2)c1 [Compound 216] | 5.89 | < 5.00
NC(=O)c1cccc(N2CCC(c3nn(C4CC4)c4ccc(C(c5ccc(Cl)cc5)c5ccc(Cl)cc5)cc34)CC2)c1 [Compound 179] | 7.03 | < 5.00
O=C(O)COc1cccc(N2CCC(c3nn(C4CC4)c4ccc(C(c5ccc(Cl)cc5)c5ccc(Cl)cc5)cc34)CC2)c1 [Compound 191] | 5.28 | < 5.00
NC(=O)c1ccccc1C(=O)N1CCC(c2c3cc(C(c4ccc(Cl)cc4)c4ccc(Cl)cc4)ccc3nn2C2CC2)CC1 [Compound 141] | 5.21 | < 5.00
NC(=O)c1ccc(S(=O)(=O)N2CCC(c3c4cc(C(c5ccc(Cl)cc5)c5ccc(Cl)cc5)ccc4nn3C3CC3)CC2)cn1 [Compound 165, 5-(4-(5-(bis(4-chlorophenyl)methyl)-2-cyclopropyl-2H-indazol-3-yl)piperidin-1-ylsulfonyl)picolinamide] | 7.89 | < 5.00
O=C(O)c1ccc(C(c2ccc(Cl)cc2)c2ccc3nn(C4CC4)c(C4CCN(S(=O)(=O)C(F)(F)F)CC4)c3c2)cc1 (stereo not drawn) [Compound 238, 4-[(4-chlorophenyl) ([2-cyclopropyl-3-[1-(trifluoromethane)sulfonylpiperidin-4-yl]-2H-indazol-5-yl])methyl]benzoic acid] | 6.70 | < 5.00
NC(=O)COc1cccc(N2CCC(c3nn(C4CC4)c4ccc(C(c5ccc(Cl)cc5)c5ccc(Cl)cc5)cc34)CC2)c1 [Compound 199] | 6.80 | < 5.00
O=C(O)c1csc(CN2CCC(c3nn(C4CC4)c4ccc(C(c5ccc(Cl)cc5)c5ccc(Cl)cc5)cc34)CC2)c1 [Compound 227] | 7.08 | < 5.00
O=C(c1nnc[nH]1)N1CCC(c2n[nH]c3ccc(C(c4ccc(Cl)cc4)c4ccc(Cl)cc4)cc23)CC1 [Compound 144] | 5.26 | < 5.00
O=C(O)c1cccc(CN2CCC(c3n[nH]c4ccc(C(c5ccc(Cl)cc5)c5ccc(Cl)cc5)cc34)CC2)c1 [Compound 225] | 7.25 | 5.48

SMILES | pEC50 [1] | pEC50 [2]
COc1cccc(S(=O)(=O)N2CCC(c3c4cc(C(c5ccc(Cl)cc5)c5ccc(Cl)cc5)ccc4nn3C3CC3)CC2)c1 [Compound 150, 5-(bis(4-chlorophenyl)methyl)-2-cyclopropyl-3-(1-(3-methoxyphenylsulfonyl)piperidin-4-yl)-2H-indazole] | 8.15 | < 5.00
NC(=O)Cn1nc(N2CCN(S(=O)(=O)C(F)(F)F)CC2)c2cc(C(c3ccc(Cl)cc3)c3ccc(Cl)cc3)ccc21 [Compound 19] | 7.08 | < 5.00
O=C(O)CCC(=O)N1CCC(c2c3cc(C(c4ccc(Cl)cc4)c4ccc(Cl)cc4)ccc3nn2C2CC2)CC1 [Compound 127] | 5.32 | < 5.00
COC(=O)c1cccc(CN2CCC(c3n[nH]c4ccc(C(c5ccc(Cl)cc5)c5ccc(Cl)cc5)cc34)CC2)c1 [Compound 259] | 6.43 | < 4.38
O=S(=O)(c1ccc(O)cc1)N1CCC(Nc2n[nH]c3ccc(C(c4ccc(Cl)cc4)c4ccc(Cl)cc4)cc23)CC1 [Compound 130] | 7.82 | < 5.00
O=C(O)c1ccc(CN2CCC(c3nn(C4CC4)c4ccc(C(c5ccc(Cl)cc5)c5ccc(Cl)cc5)cc34)CC2)cc1 [Compound 209] | 7.17 | < 5.00
O=C(O)c1ccc(N2CCC(c3n[nH]c4ccc(C(c5ccc(Cl)cc5)c5ccc(Cl)cc5)cc34)CC2)cc1 [Compound 213] | 6.44 | < 5.00
NC(=O)CCC(=O)N1CCC(c2n[nH]c3ccc(C(c4ccc(Cl)cc4)c4ccc(Cl)cc4)cc23)CC1 [Compound 43] | 6.77 | < 5.00
COc1ccc(S(=O)(=O)N2CCC(c3c4cc(C(c5ccc(Cl)cc5)c5ccc(Cl)cc5)ccc4nn3C3CC3)CC2)cc1C(=O)O [Compound 164, 5-(4-(5-(bis(4-chlorophenyl)methyl)-2-cyclopropyl-2H-indazol-3-yl)piperidin-1-ylsulfonyl)-2-methoxybenzoic acid] | 7.59 | < 5.00
O=C(O)c1ccc(S(=O)(=O)N2CCC(c3c4cc(C(c5ccc(Cl)cc5)c5ccc(Cl)cc5)ccc4nn3C3CC3)CC2)cc1Cl [Compound 161, 4-(4-(5-(bis(4-chlorophenyl)methyl)-2-cyclopropyl-2H-indazol-3-yl)piperidin-1-ylsulfonyl)-2-chlorobenzoic acid] | 8.40 | 6.02
O=C(O)Cc1cccc(N2CCC(c3nn(C4CC4)c4ccc(C(c5ccc(Cl)cc5)c5ccc(Cl)cc5)cc34)CC2)c1 [Compound 180] | 5.18 | < 5.00
O=C(O)c1ccc(C(=O)N2CCC(c3c4cc(C(c5ccc(Cl)cc5)c5ccc(Cl)cc5)ccc4nn3C3CC3)CC2)cc1 [Compound 113] | 5.37 | < 5.00
O=C(O)c1ccc(S(=O)(=O)N2CCC(c3n[nH]c4ccc(C(c5ccc(Cl)cc5)c5ccc(Cl)cc5)cc34)CC2)s1 [Compound 261] | 6.57 | 5.17
O=C(O)COCCn1nc(N2CCN(S(=O)(=O)C(F)(F)F)CC2)c2cc(C(c3ccc(Cl)cc3)c3ccc(Cl)cc3)ccc21 [Compound 52] | 6.30 | < 5.00
O=C(O)c1ccc(CS(=O)(=O)N2CCC(c3nn(C4CC4)c4ccc(C(c5ccc(Cl)cc5)c5ccc(Cl)cc5)cc34)CC2)s1 [Compound 236] | 7.17 | < 5.00
O=C(CO)N1CCC(c2nn(C3CC3)c3ccc(C(c4ccc(Cl)cc4)c4ccc(Cl)cc4)cc23)CC1 [Compound 91] | 7.41 | < 5.00
